According to patent US20230321043A1, “COMPOUNDS HAVING PSEUDOMONAS ANTI-BIOFILM PROPERTIES” (Københavns Universitet, priority 2020, published 2023):

Legend:
Type in all cases: cell-based, Pseudomonas aeruginosa
[1] = system: total cellular c-di-GMP content of P. aeruginosa ΔwspF,Δpsl,Δpel; test: HPLC coupled tandem-MS quantification of c-di-GMP extracts; details: 100 μM, 8 hours of growth; pmol c-di-GMP per mg protein, FIG. 1
Protocol: Specifically, a 20 h old culture of P. aeruginosa ΔwspF,Δpsl,Δpel (Rybtke et al 2012) was diluted 100 fold into 25 mL aliquots of ABtrace media supplemented with 0.5% Cas amino acids, 0.2% glucose, 60 μg/mL of gentamicin, 1 μM FeCl3, 0.05% DMSO and either 100 μM H6-335-P1, 100 μM H6-335 or no compound as reference control. Acting as a positive control for low total cellular c-di-GMP content, a 20 hour old culture of strain P. aeruginosa ΔwspF,Δpsl,Δpel carrying plasmid pYhj::Gm (encoding a constitutively expressed YhjH phosphodiesterase) was also diluted 100 fold into 25 mL of ABtrace medium supplemented with 0.5% Cas amino acids, 0.2% glucose, 60 μg/mL of gentamicin, 1 μM FeCl3 and 0.05% DMSO. The 4 cultures were placed on a rotary shaker and following 8 hours of growth at 37° C. and 200 RPM culture samples for c-di-GMP extraction and protein quantification was collected from each of the 4 different cultures. C-di-GMP extracts were prepared and subsequently quantified by HPLC coupled tandem-MS analysis as previously described (Groizeleau et al., 2016), while protein quantification was carried out using the Pierce 660 nm Protein Assay (Thermo Scientific Cat. No 22660) according to the manufacturer's protocol. […]

[2] = system: P. aeruginosa (PA01) tagged with GFP biofilm; test: flow-chamber biofilm, confocal laser scanning microscopy
Protocol: Biofilms were grown at 37° C. in continuous-culture, once-through, three-channel, flow-chambers (individual channel dimensions of 1×4×40 mm) perfused with sterile AB trace minimal medium (Pamp and Tolker-Nielsen, 2007), supplemented with 0.3 mM glucose and 0.025% (v/v) DMSO. P. aeruginosa (PA01) tagged with GFP at a neutral chromosomal locus was used for the experiments. After a static attachment phase of 1 h, the flow of medium was turned on and the biofilms were allowed to establish for 48 h in the absence (untreated) or presence (treated) of medium supplemented with 25 μM of H6-335-P1. Confocal laser scanning microscopy was used to image the biofilms after 24 h and 48 h (FIG. 5A).
Confocal laser scanning microscopy was used to image the biofilm immediately before H6-335-P1 was added, and after 4 h of H6-335-P1 treatment. Simulated fluorescence projections in 3D were generated from the image stacks using the IMARIS software package (Bitplane, Oxford Imaging, UK) and the resulting images were processed for publication using Photoshop (Adobe, USA).

[3] = system: P. aeruginosa ΔbifAΔwspF mutant; test: biofilm formation of bifA knockout, crystal violet; details: 100 μM, 16 hours of growth, FIG. 6B left
Protocol: Biofilm quantification was done using a 96 well microtiter platform where 20 hour old cultures of the deletion mutant of P. aeruginosa PA01 (ΔwspF) and its isogenic bifA deletion mutant (ΔbifA-) were diluted […] into 100 μL ABTrace media aliquots (Pamp and Tolker-Nielsen, 2007) supplemented with 0.2% glucose, 0.5% casa amino acids, 1 μM FeCl3, 0.2% DMSO and either 100 μM or 0 μM of H6-335-P1. The resulting cultures were incubated at 37° C. and 160 RPM, and following 16 hours of growth the amounts of biofilm were quantified by the use of crystal violet staining.

## N=C1NN=C(N)/C1=N/Nc1ccccc1F [H6-335-P1, 4-[(2-fluorophenyl) hydrazinylidene]pyrazole-3,5-diamine]
[1]
  reduction of total cellular c-di-GMP content: 90%
[2]; 25 μM in the growth medium, 48 h, FIG. 5A
  prevention of biofilm formation in flow-through cells: significantly prevented biofilm formation
[2]; 25 μM, 48 h old biofilm, after four hours of exposure, FIG. 5B
  biofilm biomass left behind: 10%
[3]
  response of biofilm formation of ΔbifAΔwspF mutant: no longer responded to the presence of H6-335-P1
